1 molecule from PMC12752627, “Discovery of a Potent and Selective TEAD Degrader with Durable Degradation Activity” (Advanced Science, 2025) can be followed below.

Series [1] concerns the target CRBN-DDB1 (Homo sapiens, UniProt Q96SW2). Briefly: CRBN binding assay, biochemical (HTRF). The following applies: recombinant CRBN-DDB1, 1 h, read-out: Biochemical CRBN Binary Binding IC50 (nM ± SD). Here is the method: Next, 400 nL of compound solution (initial concentration 10 µM, followed by a three‐fold gradient dilution) was dispensed into the wells using the positive‐pressure‐based I‐DOT dispenser. After 1 h of incubation at room temperature, the HTRF signal was measured using an Envision plate reader (Revvity). Finally, the data were analyzed using non‐linear regression curves in GraphPad Prism 9.5 software.
For orientation: Time-resolved FRET reads energy transfer from a long-lived donor to a nearby acceptor.

Series [2] deals with T1, TEAD3 (Homo sapiens, UniProt Q99594).
T1 construct: endogenous in cells; host or cells: HEK293T HiBiT knock-in
T1 sequence (Q99594 whole entry): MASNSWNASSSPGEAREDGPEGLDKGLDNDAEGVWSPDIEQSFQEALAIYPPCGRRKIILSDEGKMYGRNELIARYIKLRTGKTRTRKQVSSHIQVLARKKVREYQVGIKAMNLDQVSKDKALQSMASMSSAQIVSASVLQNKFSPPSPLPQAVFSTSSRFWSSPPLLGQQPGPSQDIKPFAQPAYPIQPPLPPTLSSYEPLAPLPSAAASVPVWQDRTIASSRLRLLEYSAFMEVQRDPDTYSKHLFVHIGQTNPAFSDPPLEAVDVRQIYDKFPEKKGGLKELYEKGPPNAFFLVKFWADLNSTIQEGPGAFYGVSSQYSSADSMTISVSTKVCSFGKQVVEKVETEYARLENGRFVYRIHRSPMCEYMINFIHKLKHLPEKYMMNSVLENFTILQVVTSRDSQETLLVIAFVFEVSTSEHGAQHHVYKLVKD
Briefly: HiBiT degradation assay, HEK293T HiBiT-TEAD3. The format is cell-based. As to conditions: 6 h. Here is the method:
(§1) HiBiT cells were inoculated into 96‐well flat‐bottomed tissue culture plates at a density of 50 000 cells per well, followed by adding degraders into the wells using the I‐DOT dispenser. After 6 h of incubation, the cells were lysed and assayed for degradation using the Nano‐Glo HiBiT Lysis Assay System (Promega, #N3030). Luminescence signals were read using an Envision plate reader (Revvity) and the data were analyzed using GraphPad Prism 9.5 software.
(§2) The ribonucleoprotein (RNP) complex was prepared by mixing 2 µg of NLS‐Cas9‐EGFP nuclease (Novoprotein, #E379‐01A), 50 pmol of sgRNA, 10 µL of electrotransfer solution, and 50 pmol of designed donor DNA, then incubated for 10 min at room temperature. One million HEK293T cells were resuspended in 10 µL of electrotransfection solution and mixed with 10 µL of the RNP complex. Electroporation was performed using a Celetrix SP100 electroporator at 480 V. After electroporation, the cells were transferred to antibiotic‐free DMEM complete medium for overnight culture. The following day, EGFP‐positive cells were sorted using a Sony MA 900 cell sorter, plated in a 96‐well cell culture plate (Servicebio, #CCP‐96H), and cultured for 4 weeks. After this period, positive clones were screened using the Nano‐Glo HiBiT Lytic Detection system (Promega, #N3030).
In general terms: HiBiT is a short tag that completes a luciferase, so light tracks the accessible tagged protein.

Series [3] concerns the target T2, TEAD1 (Homo sapiens, UniProt P28347+Q96SW2).
T2 construct: endogenous in cells; host or cells: NCI-H1299 (TEAD1-mNeonGreen knock-in)
Briefly: Immunoblot of TEAD1 degradation in TEAD1-mNeonGreen fusion NCI-H1299 cells. The format is cell-based. Here is the method:
(§3) Immunoblotting was carried out as previously described.^[ [29] ^] Cells were seeded in 6‐well plates (Yeasen, #84011ES50) at a density of 1 million cells per well. The following day, cells were treated with compounds at the required concentrations, with the DMSO concentration kept below 0.4‰ to prevent toxic effects on the cells. The collected cell pellets were washed three times with PBS (Meilunbio, #MA0015) and resuspended in 120 µL of RIPA lysis buffer (Meilunbio, #MA0151) containing 1% protease inhibitor (Meilunbio, #MB2678‐2). The cells were then sonicated on ice and centrifuged at 12 000 rpm for 15 min at 4 °C to remove cellular debris. Protein concentrations were determined using the BCA Protein Quantification Kit (Meilunbio, #MA0082‐1). The protein samples were normalized, boiled at 99 °C for 10 min, and then subjected to electrophoresis on a 10% SDS‐PAGE gel. The separated protein bands were transferred to nitrocellulose membranes, blocked with TBST containing 5% BSA, and incubated with the indicated primary antibodies. Finally, the blots were imaged using an Amersham Typhoon NIR imager.

Series [4] has as its system ES2 cells. Briefly: Cell viability assay (CTG, 72 h) ES2. The format is cell-based. The following applies: Homo sapiens, ES-2, 72 h, 3-day compound treatment. Here is the method: Cells were seeded at a density of 1000 cells per well in 96‐well flat‐bottomed cell culture plates and cultured overnight at 37 °C with 5% CO2 to allow for cell attachment. The following day, different concentrations of compounds were added using an I‐DOT dispenser. After 72 h, 25 µL of CellTiter‐Meiluncell Luminescent Cell Viability Reagent (Meilunbio, #PWL111‐2) was added and incubated for 15 min at room temperature. Luminescence signals were then measured using an Envision plate reader (Revvity). Data were analyzed using GraphPad Prism 9.5 software.^[ [30] ^]

Series [5] can be described thus: 7-day toxicological study in MSTO-211H tumor-bearing mice. The format is in vivo. As to conditions: 10 or 30 mg/kg i.p. daily, 7 days. Here is the method: A toxicological evaluation was conducted using an MSTO‐211H xenograft mouse model. All animal studies were carried out in accordance with protocols approved by the Institutional Animal Care and Use Committees of Tongji University and the Chinese Academy of Sciences, and in compliance with national, institutional and local regulations. These experiments were conducted in specific‐pathogen‐free (SPF) and Helicobacter‐free facilities at both institutions. After 7 consecutive days of drug administration (10 mg kg^−1 or 30 mg kg^−1, i.p., q.d.), whole blood and major organs—including the heart, liver, spleen, lungs, and kidneys—were collected for analysis. Blood samples were anticoagulated with EDTA (1.5 mg mL^−1), gently mixed, and subjected to standard hematological assessment. Tissue samples were processed for both paraffin‐embedded and frozen section analysis. Paraffin embedding involved fixation, graded dehydration, clearing, embedding, sectioning at 4 µm, and dewaxing to water. Frozen sections were prepared by embedding tissues in OCT compound, sectioning at −20 °C with a thickness of 8 µm, followed by acetone fixation and rinsing with PBS. […] Microscopic examinations and image acquisition were carried out, and quantitative analyses were performed using specialized image analysis software. […]

The test system of series [6] is CTGF, ANKRD1, NPPB, PTX3 expression. In words: RT-qPCR in A172 cells incl. washout. The following applies: 6 h treatment, 18 h. The format is cell-based. (In general: Real-time PCR tracks product formation cycle by cycle.)
Experimental: Cells were seeded in 6‐well plates at a density of 1 million cells per well. The following day, different concentrations of compounds were added, and cells were collected after 24 h. For wash‐out experiments, cells were pre‐treated with compounds at indicated concentrations for 6 h, then cells were washed three times with PBS, and an equal volume of complete medium without compounds was added and incubated for another 18 h.
RNA was isolated and purified from the samples using the EZ‐10 Rotary Column Total RNA Isolation Kit (Sangon Biotech, B615012). After measuring the RNA concentration, 200 ng of purified RNA was used for genomic DNA removal and reverse transcription to cDNA with the HiScript III 1st Strand cDNA Synthesis Kit (+DNA wiper) (Vazyme, R312‐02). The resulting cDNA was then prepared into a reaction mix according to the ChamQ SYBR qPCR Mix (Vazyme, #q711‐02). Real‐time PCR analysis was performed using a QuantStudio 6 Pro real‐time PCR system (Thermo Fisher Scientific). Relative gene expression was calculated using the 2‐∆∆CT method.
Series [7] deals with T3, TEAD1 (Homo sapiens, UniProt P28347). In words: HiBiT degradation assay, HEK293T HiBiT-TEAD1. The format is cell-based. Further details: endogenous in cells; host or cells: HEK293T wild-type and CRBN-knockout. The following applies: 6 h. Here is the method: as §1, §2
Target sequence in this assay (P28347 whole entry, the tested form may be a part): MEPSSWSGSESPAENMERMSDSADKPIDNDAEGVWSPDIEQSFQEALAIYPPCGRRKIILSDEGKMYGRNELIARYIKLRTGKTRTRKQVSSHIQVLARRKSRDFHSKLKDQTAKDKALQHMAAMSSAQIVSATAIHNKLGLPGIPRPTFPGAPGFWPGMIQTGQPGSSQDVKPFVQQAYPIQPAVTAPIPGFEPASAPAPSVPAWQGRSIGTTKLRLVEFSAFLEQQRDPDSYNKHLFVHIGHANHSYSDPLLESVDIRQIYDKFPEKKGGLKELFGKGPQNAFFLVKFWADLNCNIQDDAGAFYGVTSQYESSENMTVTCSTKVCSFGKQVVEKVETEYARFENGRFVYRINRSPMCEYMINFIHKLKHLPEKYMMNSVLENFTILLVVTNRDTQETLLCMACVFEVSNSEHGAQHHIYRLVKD
In series [8] the target is T3, TEAD1. In words: Immunoblot of TEAD1 degradation in TEAD1-mNeonGreen fusion NCI-H1299 cells. The format is cell-based. As to conditions: 100 nM, TEAD1-mNeonGreen fusion NCI-H1299 cells. Further details: endogenous in cells; host or cells: NCI-H1299 (TEAD1-mNeonGreen knock-in). Here is the method:
as §3
Target sequence in this assay (P28347 whole entry, the tested form may be a part): as above
Target sequence in this assay (Q96SW2 whole entry, further chain, the tested form may be a part): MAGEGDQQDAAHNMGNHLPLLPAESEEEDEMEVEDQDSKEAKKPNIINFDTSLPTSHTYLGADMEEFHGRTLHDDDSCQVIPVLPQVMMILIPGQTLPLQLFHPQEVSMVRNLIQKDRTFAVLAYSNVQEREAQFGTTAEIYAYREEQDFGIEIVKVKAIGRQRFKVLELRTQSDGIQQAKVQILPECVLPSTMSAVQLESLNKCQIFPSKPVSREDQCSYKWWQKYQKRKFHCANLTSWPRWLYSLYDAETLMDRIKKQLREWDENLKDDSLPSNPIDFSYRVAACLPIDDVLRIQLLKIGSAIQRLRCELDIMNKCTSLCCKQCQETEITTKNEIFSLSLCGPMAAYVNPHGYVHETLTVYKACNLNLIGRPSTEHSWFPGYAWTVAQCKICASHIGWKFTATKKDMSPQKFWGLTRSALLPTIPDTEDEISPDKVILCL
Target sequence in this assay (Q16531 2-1140 partner limits assumed): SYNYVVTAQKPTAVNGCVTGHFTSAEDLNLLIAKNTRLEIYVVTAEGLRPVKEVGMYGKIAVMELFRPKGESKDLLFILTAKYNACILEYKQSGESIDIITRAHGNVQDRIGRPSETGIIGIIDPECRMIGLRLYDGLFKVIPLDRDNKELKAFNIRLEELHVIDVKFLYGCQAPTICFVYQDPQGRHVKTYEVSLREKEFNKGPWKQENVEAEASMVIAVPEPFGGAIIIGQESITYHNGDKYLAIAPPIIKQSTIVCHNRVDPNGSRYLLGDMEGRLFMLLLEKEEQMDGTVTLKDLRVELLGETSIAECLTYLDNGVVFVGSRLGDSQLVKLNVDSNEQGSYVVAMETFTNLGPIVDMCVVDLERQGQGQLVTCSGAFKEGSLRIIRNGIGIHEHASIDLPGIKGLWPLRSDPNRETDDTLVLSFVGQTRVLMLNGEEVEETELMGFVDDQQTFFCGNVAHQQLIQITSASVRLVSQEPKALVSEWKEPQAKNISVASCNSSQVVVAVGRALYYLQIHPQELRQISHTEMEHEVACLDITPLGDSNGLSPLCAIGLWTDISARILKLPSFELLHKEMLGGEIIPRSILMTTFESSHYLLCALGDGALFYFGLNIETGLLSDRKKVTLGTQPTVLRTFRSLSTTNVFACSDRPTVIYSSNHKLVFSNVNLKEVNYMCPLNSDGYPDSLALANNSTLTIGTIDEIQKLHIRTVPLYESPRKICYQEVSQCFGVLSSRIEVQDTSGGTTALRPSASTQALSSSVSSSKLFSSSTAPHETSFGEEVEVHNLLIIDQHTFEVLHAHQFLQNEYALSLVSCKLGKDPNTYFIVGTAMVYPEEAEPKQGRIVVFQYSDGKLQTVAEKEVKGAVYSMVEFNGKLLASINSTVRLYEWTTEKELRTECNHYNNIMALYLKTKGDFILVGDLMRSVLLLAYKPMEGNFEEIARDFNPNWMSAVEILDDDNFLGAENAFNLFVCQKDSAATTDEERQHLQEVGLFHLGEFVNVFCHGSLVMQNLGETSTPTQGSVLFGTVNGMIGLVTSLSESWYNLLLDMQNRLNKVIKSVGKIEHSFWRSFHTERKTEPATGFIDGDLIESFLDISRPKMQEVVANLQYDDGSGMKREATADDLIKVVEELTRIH

T2 sequence (P28347 whole entry): as the sequence (P28347 whole entry, the tested form may be a part) above
T2 sequence (Q96SW2 whole entry): as the sequence (Q96SW2 whole entry, further chain, the tested form may be a part) above
T2 sequence (Q16531 2-1140 partner limits assumed): as the sequence (Q16531 2-1140 partner limits assumed) above
Chain of CRBN-DDB1 (Q96SW2 whole entry): as the sequence (Q96SW2 whole entry, further chain, the tested form may be a part) above

In general, IC50 refers to the concentration needed to halve the response being measured. Broadly, the DC50 is the midpoint of the concentration-degradation curve. Low values mean a more potent degrader, high ones a less potent degrader. As usually defined, the Dmax is the largest share of the target that was removed. For the molecule `CNC(=O)c1cc2c(c(F)c1-c1c(Cl)c(F)cc3c1C[C@@](CN[C@H]1CC[C@H](C(=O)N4CCC(CC5CCN(C(=O)COc6ccc(N7CCC(=O)NC7=O)c(C)c6)CC5)CC4)CC1)(c1ccccc1)O3)[C@@H](O)[C@@H](C)C2` [KG-FP-003], the concentration for half-maximal inhibition (IC50) in series [1] amounted to 591 ± 21 nM. Besides, in series [2], the DC50 came out at 0.012 ± 0.005 µM and the “TEAD3 Dmax” value is “≈ 90%”. Also, in series [2] (HEK-293T), the Dmax turned out to be 87 ± 9%. Besides, the “Target degradation by immunoblot” value in series [3] (10 nM, 6 h, TEAD1-mNeonGreen NCI-H1299 cells) is “significant target degradation”. In addition, in series [3] (100 nM, TEAD1-mNeonGreen fusion NCI-H1299 cells), the “Time to near-complete depletion of TEAD1” value is listed as no more than 2 h. In addition, the half-maximal inhibitory concentration (IC50) in series [4] came out at 0.202 ± 0.014 µM. Moreover, in series [5], the Hematological analyses entry was “no significant deviations from baseline” and the “Histopathological examination of heart, liver, spleen, lungs, kidneys” value is “no structural abnormalities or pathological lesions”. Further, the “Repression of TEAD target genes after washout (qPCR)” value in series [6] is “sustained and pronounced repression”. Besides, in series [7], half-maximal degradation (DC50) was put at 0.006 ± 0.004 µM and the “TEAD1 Dmax” value is given as “≈ 90%”. Moreover, the Dmax in series [7] (HEK-293T) came to 93 ± 1%. Besides, in series [8], the “Duration of sustained TEAD1 degradation” value is listed as “up to 12 days”.
